Experimental data taken from US9622429B2, “Method for increasing plant biomass” (BioMass Booster, S.L., priority 2010, dated 2017).

Assays:
Type in all cases: cell-based
[1] = system: tobacco (Nicotiana tabacum) calli; test: Callus growth (biomass increase) on medium containing adrenomedullin, tobacco
Excerpt: (§1) Carrot (Daucus carota) and tobacco (Nicotiana tabacum) calli were supplied by Carolina Biological Supply Company (Burlington, N.C., USA) and kept under sterile conditions in solid callus initiation medium for carrots or for tobacco respectively (also acquired from Carolina Biological). The specific composition thereof is available in the company's catalog. A single callus was split into small fragments and these fragments were weighed under sterile conditions and seeded on fresh medium (solid callus initiation medium acquired from Carolina Biologicals) which contained different concentrations of the synthetic peptide human adrenomedullin (AM) (Phoenix Pharmaceuticals, Burlingame, Calif., USA). After 30 days of growth in the dark, the calli were weighed again and the growth rate was calculated as the quotient of the final weight divided by the initial weight. The dry weight of each sample was calculated by subjecting the calli to an oven drying process at […] for 24 hours.

Chlorella = test: Microalgae growth in culture, absorbance at 680 nm; details: final concentration of 10^−8 M AM, Guillard F/2 medium, 5% CO2, 12 hours light/12 hours dark
Method: Two identical cultures of Chlorella in Guillard F/2 medium [Guillard, R. R. L. 1975. Culture of phytoplankton for feeding marine invertebrates. pp 26-60. In Smith W. L. and Chanley M. H (Eds.) Culture of Marine Invertebrate Animals. Plenum Press, New York, USA.; Guillard, R. R. L. and Ryther, J. H. 1962. Studies of marine planktonic diatoms. I. Cyclotella nana Hustedt and Detonula confervacea Cleve. Can. J. Microbiol. 8: 229-239] (250 ml each) were prepared in two separate glass flasks. Then, 100 μl of said Guillard F/2 medium were added to a flask and 100 μl of said Guillard F/2 medium containing the synthetic peptide human adrenomedullin (AM) (Phoenix Pharmaceuticals, Burlingame, Calif., USA) in a sufficient amount to achieve a final concentration of 10^−8 M to the other flask.
Air containing 5% CO2 was continuously bubbled in the culture. The flasks were illuminated with a photoperiod of 12 hours light/12 hours dark.
Aliquots from the medium were periodically collected in order to assess the microalgae growth. Absorbance was measured at 680 nm with a Perkin Elmer Lambda 35 UV/Visible spectrofotometer.

[2] = system: Carrot (Daucus carota) calli; test: Callus growth (biomass increase) on medium containing adrenomedullin, carrot
Excerpt: as §1

[3] = different concentrations of AM, 30 days of growth in the dark
[4] = oven drying at 250° C. for 24 hours

human adrenomedullin [AM] was tested, and the “most effective concentration of AM for stimulating cell growth” value ([1]; 30 days of growth in the dark) was 10^−10 M, the “growth of the calli (growth rate = final weight / initial weight)” value [1, 3] was “growth increase in the calli following a dose-dependent response” and the “increase in the biomass when compared with the control” value ([1]; optimal dose of AM, 30 days) was 60%. For the same substance, the “dry weight of the tissue” value [1, 4] was “differences were maintained”, the “microalgae growth (absorbance at 680 nm)” value (Chlorella) was “grow up faster and reach the stationary phase sooner than the non-treated microalgae” and the “most effective concentration of AM for stimulating cell growth” value ([2]; 30 days of growth in the dark) was 10^−10 M. The “growth of the calli (growth rate = final weight / initial weight)” value [2, 3] was “growth increase in the calli following a dose-dependent response”, the “increase in the biomass when compared with the control” value ([2]; optimal dose of AM, 30 days) was 60% and the “dry weight of the tissue” value [2, 4] was “differences were maintained”.
